Values quoted from earlier work in patent US6627665B2 (Arch Chemicals, Inc., priority 2001, dated 2003).

Tested on: rats

SMILES: On1ccccc1=S.On1ccccc1=S.[Cu] [Copper pyrithione powder, copper pyrithione]
- acute inhalation toxicity relative to zinc pyrithione powder: more toxic than zinc pyrithione powder
